Data reported in patent US8202885B2, “Bridged six-membered ring compounds” (Actelion Pharmaceuticals Ltd., priority 2007, dated 2012).

Each molecule was assayed on human Cav3.1 Cav3.2 or Cav3.3 channel (assay: In vitro assay T channel (FLIPR calcium fluorescence)). Details: HEK293 cells expressing human Cav3.1, Cav3.2 or Cav3.3; 10 mM Ca2+-induced fluo-4 fluorescence; determined up to 10 μM; read-out: T channel antagonistic activity IC50.
Assay type: cell-based
Summary of the method: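 HEK293 cells stably expressing human Cav3.1, Cav3.2 or Cav3.3 loaded with fluo-4 AM (3 μM), preincubated 3 min with antagonist, then stimulated with 10 mM Ca2+ in TEA-chloride/HEPES buffer pH 7.2. FLIPR fluorescence read every 2 s for 8 min; IC50 from peak area versus vehicle, tested up to 10 μM.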

Structure (SMILES)	IC50 [µM]
Cc1cc2cc(CCCN(C)CC[C@]3(OC(=O)C(C)C)C[C@H]4CC[C@@H]3C=C4c3ccccc3)cnc2o1 (relative stereo) [Example 42A, rac-Isobutyric acid (1R*,2R*,4R*)-2-(2-{methyl-[3-(2-methyl-furo[2,3-b]pyridin-5-yl)-propyl]-amino}-ethyl)-5-phenyl-bicyclo[2.2.2]oct-5-en-2-yl ester]	> 10
COCC(C)(COC)C(=O)NCCCN(C)CC[C@]1(O)C[C@H]2CC[C@@H]1C=C2c1ccccc1 (relative stereo) [Example 43, rac-N-(3-{[2-((1R*,2R*,4R*)-2-Hydroxy-5-phenyl-bicyclo[2.2.2]oct-5-en-2-yl)-ethyl]-methyl-amino}-propyl)-3-methoxy-2-methoxymethyl-2-methyl-propionamide]	> 10
COCC(C)(COC)C(=O)NCCCN(C)CC[C@]1(OC(=O)C(C)C)C[C@H]2CC[C@@H]1C=C2c1ccccc1 (relative stereo) [Example 43A, rac-Isobutyric acid (1R*,2R*,4R*)-2-(2-{[3-(3-methoxy-2-methoxymethyl-2-methyl-propionylamino)-propyl]-methyl-amino}-ethyl)-5-phenyl-bicyclo[2.2.2]oct-5-en-2-yl ester]	2.71
COC(C)(C)C(=O)NCCCN(C)CC[C@]1(O)C[C@H]2CC[C@@H]1C=C2c1ccccc1 (relative stereo) [Example 44, rac-N-(3-{[2-((1R*,2R*,4R*)-2-Hydroxy-5-phenyl-bicyclo[2.2.2]oct-5-en-2-yl)-ethyl]-methyl-amino}-propyl)-2-methoxy-2-methyl-propionamide]	> 10
COC(C)(C)C(=O)NCCCN(C)CC[C@]1(OC(=O)C(C)C)C[C@H]2CC[C@@H]1C=C2c1ccccc1 (relative stereo) [Example 44A, rac-Isobutyric acid (1R*,2R*,4R*)-2-(2-{[3-(2-methoxy-2-methyl-propionylamino)-propyl]-methyl-amino}-ethyl)-5-phenyl-bicyclo[2.2.2]oct-5-en-2-yl ester]	> 10

Next, values leading:

IC50 [µM]	Structure (SMILES)
1.7	CC(C)C(=O)O[C@@]1(CCN(C)CCCNC(=O)C(C)(C)C)C[C@H]2CC[C@@H]1C=C2c1ccccc1 (relative stereo) [Example 45A, rac-Isobutyric acid (1R*,2R*,4R*)-2-(2-{[3-(2,2-dimethyl-propionylamino)-propyl]-methyl-amino}-ethyl)-5-phenyl-bicyclo[2.2.2]oct-5-en-2-yl ester]
> 10	CN(CCCc1cccnc1)CC[C@]1(O)C[C@H]2CC[C@@H]1C=C2c1ccccc1 (relative stereo) [Example 46, rac-(1R*,2R*,4R*)-2-{2-[Methyl-(3-pyridin-3-yl-propyl)-amino]-ethyl}-5-phenyl-bicyclo[2.2.2]oct-5-en-2-ol]
8.03	CC(C)C(=O)O[C@@]1(CCN(C)CCCc2nc(-c3ccccc3)c(-c3ccccc3)[nH]2)C[C@H]2CC[C@@H]1C=C2c1ccccc1 (relative stereo) [Example 47A, rac-Isobutyric acid (1R*,2R*,4R*)-2-(2-{[3-(4,5-diphenyl-1H-imidazol-2-yl)-propyl]-methyl-amino}-ethyl)-5-phenyl-bicyclo[2.2.2]oct-5-en-2-yl ester]
> 10	CC(C)C(=O)O[C@@]1(CCN(C)CCCc2cncc3ccccc23)C[C@H]2CC[C@@H]1C=C2c1ccccc1 (relative stereo) [Example 48A, rac-Isobutyric acid (1R*,2R*,4R*)-2-{2-[(3-isoquinolin-4-yl-propyl)-methyl-amino]-ethyl}-5-phenyl-bicyclo[2.2.2]oct-5-en-2-yl ester]
> 10	CN(CCCc1cnc2ccccc2c1)CC[C@]1(O)C[C@H]2CC[C@@H]1C=C2c1ccccc1 (relative stereo) [Example 49, rac-(1R*,2R*,4R*)-2-{2-[Methyl-(3-quinolin-3-yl-propyl)-amino]-ethyl}-5-phenyl-bicyclo[2.2.2]oct-5-en-2-ol]
